According to ChEMBL document CHEMBL1201862, “PubChem BioAssay data set” (2004):
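Assay format: 96-well plates, 48-hour exposure. GI50: concentration for 50% inhibition of growth.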 Active and inactive are the calls of the source. No stated cut-off is given here; in the data, active = GI50 up to about 1.1 µM and inactive = higher.

What was measured:
Assay in all cases: growth of human tumour cells (NCI), 48 h
[1] = system: BT-549
[2] = system: MCF7
[3] = system: A498
[4] = system: CAKI-1
[5] = system: HT-29
[6] = system: A549
[7] = system: SF-295
[8] = system: HCC 2998
[9] = system: 786-0
[10] = system: Malme-3M
[11] = system: SW-620
[12] = system: HCT-15
[13] = system: LOX IMVI
[14] = system: OVCAR-8
[15] = system: OVCAR-4
[16] = system: HCT-116
[17] = system: SK-MEL-2
[18] = system: M14
[19] = system: NCI-H226
[20] = system: HL-60

Compound	GI50 [1]	GI50 [2]	GI50 [3]	GI50 [4]	GI50 [5]	GI50 [6]	GI50 [7]	GI50 [8]	GI50 [9]	GI50 [10]	GI50 [11]	GI50 [12] [µM]	GI50 [13]	GI50 [14]	GI50 [15]	GI50 [16]	GI50 [17]	GI50 [18]	GI50 [19]	GI50 [20]
Oc1ccccc1-c1n[nH]c(-c2ccccc2O)n1	> 100 µM (inactive)	0.577 µM (active)	8.51 µM (inactive)	3.22 µM (inactive)	3.91 µM (inactive)	2.21 µM (inactive)	2.52 µM (inactive)	3.9 µM (inactive)	4.18 µM (inactive)	2.84 µM (inactive)	2.55 µM (inactive)	0.149	2.06 µM (inactive)	2.72 µM (inactive)	2.36 µM (inactive)	1.32 µM (inactive)	> 100 µM (inactive)	2.38 µM (inactive)	4.38 µM (inactive)	1.27 µM (inactive)
C/C(=N/Nc1nc(C)cc(O)n1)C(=O)O	> 100 µM (inactive)	> 100 µM (inactive)	> 100 µM (inactive)	> 100 µM (inactive)	> 100 µM (inactive)	> 100 µM (inactive)	> 100 µM (inactive)	> 100 µM (inactive)	> 100 µM (inactive)	> 100 µM (inactive)	> 100 µM (inactive)	> 100	> 100 µM (inactive)	> 100 µM (inactive)	> 100 µM (inactive)	> 100 µM (inactive)	> 100 µM (inactive)	> 100 µM (inactive)	> 100 µM (inactive)	> 100 µM (inactive)
Cc1nc2ccccc2nc1-c1ccc(/N=[N+](\[O-])c2ccc(-c3nc4ccccc4nc3C)cc2)cc1	> 85.9 µM (inactive)	> 100 µM (inactive)	> 53.2 µM (inactive)	> 100 µM (inactive)	> 100 µM (inactive)	> 100 µM (inactive)	59.6 µM (inactive)	> 100 µM (inactive)	45.5 µM (inactive)	42.4 µM (inactive)	> 100 µM (inactive)	> 100	> 100 µM (inactive)	50.1 µM (inactive)	> 100 µM (inactive)	> 79.8 µM (inactive)	> 68.1 µM (inactive)	> 96.2 µM (inactive)	> 74.8 µM (inactive)	> 100 µM (inactive)
Cn1nnc2c(C(N)=S)ncn2c1=O	> 100 µM (inactive)	> 100 µM (inactive)	> 100 µM (inactive)	> 100 µM (inactive)	> 100 µM (inactive)	> 100 µM (inactive)	74.1 µM (inactive)	> 100 µM (inactive)	> 100 µM (inactive)	> 100 µM (inactive)	> 100 µM (inactive)	> 100	> 100 µM (inactive)	> 100 µM (inactive)	> 100 µM (inactive)	> 100 µM (inactive)	> 100 µM (inactive)	> 100 µM (inactive)	> 100 µM (inactive)	> 100 µM (inactive)
O=C1C(OC(=O)c2ccccc2)=C(c2ccc(O)cc2)C(=O)C(OC(=O)c2ccccc2)=C1c1ccc(O)cc1	> 100 µM (inactive)	> 100 µM (inactive)	> 100 µM (inactive)	> 100 µM (inactive)	> 100 µM (inactive)	> 100 µM (inactive)	61 µM (inactive)	40.3 µM (inactive)	> 100 µM (inactive)	> 100 µM (inactive)	> 100 µM (inactive)	> 100	76.4 µM (inactive)	> 100 µM (inactive)	51.9 µM (inactive)	> 100 µM (inactive)	32 µM (inactive)	> 100 µM (inactive)	> 100 µM (inactive)	> 100 µM (inactive)
COC(=O)c1cc(C#N)[nH]c1-c1cc(Br)cs1	12.9 µM (inactive)	7.24 µM (inactive)	4.97 µM (inactive)	17.5 µM (inactive)	14.2 µM (inactive)	10.5 µM (inactive)	10 µM (inactive)	> 41.7 µM (inactive)	19.1 µM (inactive)	10.8 µM (inactive)	17.7 µM (inactive)	15.1	11.3 µM (inactive)	14.7 µM (inactive)	4.54 µM (inactive)	12.8 µM (inactive)	12.8 µM (inactive)	14.3 µM (inactive)	10.9 µM (inactive)	13.2 µM (inactive)
CCCCCCSC[C@H](OC(C)=O)[C@@H](OC(C)=O)[C@@H](OC(C)=O)[C@@H](COC(C)=O)OC(C)=O	> 100 µM (inactive)	85.5 µM (inactive)	> 100 µM (inactive)	> 100 µM (inactive)	> 100 µM (inactive)	71.1 µM (inactive)	> 100 µM (inactive)	> 100 µM (inactive)	> 100 µM (inactive)	> 100 µM (inactive)	> 100 µM (inactive)	62.5	> 100 µM (inactive)	> 100 µM (inactive)	> 100 µM (inactive)	49.9 µM (inactive)	> 100 µM (inactive)	89.7 µM (inactive)	> 100 µM (inactive)	33.6 µM (inactive)
O=C1C(Cl)=C(N2CCN(C3=C(Cl)C(=O)c4ccccc4C3=O)CC2)C(=O)c2ccccc21	1.73 µM (inactive)	1.72 µM (inactive)	3.49 µM (inactive)	1.79 µM (inactive)	2.23 µM (inactive)	12.1 µM (inactive)	7.62 µM (inactive)	2.78 µM (inactive)	1.82 µM (inactive)	1.91 µM (inactive)	1.17 µM (inactive)	1.61	1.71 µM (inactive)	1.69 µM (inactive)	1.58 µM (inactive)	1.44 µM (inactive)	1.74 µM (inactive)	1.53 µM (inactive)	4.25 µM (inactive)	0.0841 µM (active)
O=C1Nc2ccccc2/C1=N/Nc1ccc([N+](=O)[O-])cc1	16.5 µM (inactive)	37.8 µM (inactive)	15.2 µM (inactive)	15.5 µM (inactive)	61.8 µM (inactive)	24.4 µM (inactive)	16.9 µM (inactive)	70.5 µM (inactive)	13.8 µM (inactive)	17.4 µM (inactive)	33.5 µM (inactive)	30.3	21.5 µM (inactive)	11.5 µM (inactive)	14.4 µM (inactive)	20.7 µM (inactive)	58.2 µM (inactive)	30.8 µM (inactive)	19.1 µM (inactive)	15.1 µM (inactive)
COc1ccc2c(NCCCCCCNc3c4ccccc4nc4cc(OC)ccc34)c3ccccc3nc2c1	1.3 µM (inactive)	0.0475 µM (active)	0.516 µM (active)	0.367 µM (active)	0.029 µM (active)	0.0716 µM (active)	0.286 µM (active)	0.135 µM (active)	0.0753 µM (active)	0.427 µM (active)	0.0448 µM (active)	1.29	0.0653 µM (active)	0.0853 µM (active)	0.103 µM (active)	0.0451 µM (active)	0.364 µM (active)	0.48 µM (active)	0.212 µM (active)	0.0923 µM (active)
NC(=O)C(Nc1c(Cl)cccc1Cl)c1cc2cc(Br)ccc2nc1Cl (stereo not given)	36.8 µM (inactive)	30.1 µM (inactive)	> 100 µM (inactive)	76.6 µM (inactive)	52.8 µM (inactive)	63.1 µM (inactive)	58.9 µM (inactive)	44.8 µM (inactive)	> 100 µM (inactive)	> 100 µM (inactive)	37.6 µM (inactive)	24.4	59.6 µM (inactive)	80.7 µM (inactive)	46.3 µM (inactive)	41.9 µM (inactive)	29.6 µM (inactive)	33 µM (inactive)	45.5 µM (inactive)	28.4 µM (inactive)
CC(C)(C)OC(=O)N1C(C2=COc3ccccc3O2)=COc2cccnc21	1.59 µM (inactive)	1.66 µM (inactive)	1.71 µM (inactive)	2.13 µM (inactive)	1.91 µM (inactive)	1.98 µM (inactive)	1.95 µM (inactive)	1.69 µM (inactive)	1.83 µM (inactive)	1.45 µM (inactive)	2.01 µM (inactive)	1.77	1.74 µM (inactive)	1.9 µM (inactive)	1.6 µM (inactive)	1.99 µM (inactive)	1.94 µM (inactive)	1.79 µM (inactive)	1.71 µM (inactive)	1.8 µM (inactive)
C/C=C(\C)C(=O)O[C@@H]1CC(C)(C)CC2C3=CCC4[C@]56CC[C@](O)(OC5)C(C)(C)C6CC[C@@]4(C)C3(C)CC[C@]21C(=O)O (stereo not given in full)	> 100 µM (inactive)	> 100 µM (inactive)	> 100 µM (inactive)	> 100 µM (inactive)	97.1 µM (inactive)	53.3 µM (inactive)	> 100 µM (inactive)	> 100 µM (inactive)	> 100 µM (inactive)	> 100 µM (inactive)	> 100 µM (inactive)	83.4	25.9 µM (inactive)	> 100 µM (inactive)	> 100 µM (inactive)	79.6 µM (inactive)	> 100 µM (inactive)	> 100 µM (inactive)	> 100 µM (inactive)	28.4 µM (inactive)
Cc1cnc2nc(-c3ccc(Cl)cc3)cc(O)c2c1	9.95 µM (inactive)	4.48 µM (inactive)	5.48 µM (inactive)	5.33 µM (inactive)	3.27 µM (inactive)	5.05 µM (inactive)	3.55 µM (inactive)	11.4 µM (inactive)	6.17 µM (inactive)	8.61 µM (inactive)	4.06 µM (inactive)	2.07	4.63 µM (inactive)	9.14 µM (inactive)	19.1 µM (inactive)	3.84 µM (inactive)	5.82 µM (inactive)	5.81 µM (inactive)	13.2 µM (inactive)	1.87 µM (inactive)
